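Dose response: 5 concentrations. Exposure: 48 h. Format: 96-well plates. Endpoint: linear interpolation; highest concentration if not reached. GI50: concentration for 50% inhibition of growth. TGI: concentration producing complete growth inhibition.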
Key:
Assay in all cases: NCI tumour cell line growth inhibition, 48 h
[1] = system: A498 renal
[2] = system: OVCAR-5 ovarian
[3] = system: OVCAR-8 ovarian
[4] = system: SNB-19 CNS
[5] = system: COLO 205 colon
[6] = system: U251 CNS
[7] = system: SN12C renal
[8] = system: A549 NSCLC
[9] = system: CCRF-CEM leukemia
[10] = system: NCI-H460 lung
[11] = system: M14 melanoma
[12] = system: HS 578T breast
[13] = system: MALME-3M melanoma
[14] = system: SF-268 CNS
[15] = system: HCC-2998 colon
[16] = system: PC-3 prostate
[17] = system: SK-MEL-5 melanoma
[18] = system: NCI-H522 lung
[19] = system: HCT-116 colon
[20] = system: CAKI-1 renal
[21] = system: OVCAR-4 ovarian
[22] = system: SK-MEL-2 melanoma
[23] = system: ACHN renal
[24] = system: MOLT-4 leukemia
[25] = system: K-562 leukemia
[26] = system: IGROV1 ovarian
[27] = system: HOP-92 NSCLC
[28] = system: SF-539 CNS
[29] = system: NCI-H226 lung
[30] = system: TK-10 renal
[31] = system: HCT-15 colon
[32] = system: SK-MEL-28 melanoma
[33] = system: KM12 colon
[34] = system: T-47D breast
[35] = system: MDA-MB-435
[36] = system: DU-145 prostate
[37] = system: OVCAR-3 ovarian
[38] = system: UACC-62 melanoma
[39] = system: NCI-H23 lung
[40] = system: HOP-62 NSCLC
[41] = system: MCF7 breast
[42] = system: RXF 393 renal
[43] = system: EKVX NSCLC
[44] = system: SK-OV-3 ovarian
[45] = system: LOX IMVI melanoma
[46] = system: HL-60(TB) leukemia
[47] = system: RPMI-8226 leukemia
[48] = system: SF-295 CNS
[49] = system: HT29 colon
[50] = system: UACC-257 melanoma
[51] = system: SW-620 colon
[52] = system: UO-31 renal
[53] = system: 786-0 renal
[54] = system: BT-549 breast
[55] = system: MDA-MB-231 breast
[56] = system: NCI/ADR-RES ovarian

Q: With `O=C(CC1(O)C(=O)Nc2ccc(F)cc21)c1ccc(C(=O)NCC2CCC3(CC2)OOC2(CCCCC2)OO3)cc1` (configuration not stated) as the compound, how does the GI50 [1] read?
A: 13.3 µM

Q: And the TGI [1]?
A: 29.4 µM

Q: What about the GI50 [2] of the same compound?
A: 15.7 µM

Q: What about the TGI [2] of the same compound?
A: 36.5 µM

Q: And the GI50 [3]?
A: 6.3 µM

Q: And the TGI [3]?
A: 35.8 µM

Q: What about the GI50 [4] of the same compound?
A: 14.8 µM

Q: And the TGI [4]?
A: 36.5 µM

Q: And the GI50 [5]?
A: 5.37 µM

Q: What about the TGI [5] of the same compound?
A: 22.9 µM

Q: And the GI50 [6]?
A: 3.18 µM

Q: What about the TGI [6] of the same compound?
A: 11.3 µM

Q: And the GI50 [7]?
A: 10.8 µM

Q: What about the TGI [7] of the same compound?
A: 33.6 µM

Q: What about the GI50 [8] of the same compound?
A: 2.49 µM

Q: And the TGI [8]?
A: 5.81 µM

Q: What about the GI50 [9] of the same compound?
A: 1.81 µM

Q: And the TGI [9]?
A: 4.3 µM

Q: And the GI50 [10]?
A: 2.52 µM

Q: What about the TGI [10] of the same compound?
A: 6.47 µM

Q: And the GI50 [11]?
A: 12.2 µM

Q: And the TGI [11]?
A: 39.3 µM

Q: And the GI50 [12]?
A: 11.4 µM

Q: And the TGI [12]?
A: 47.4 µM

Q: What about the GI50 [13] of the same compound?
A: 2.21 µM

Q: What about the TGI [13] of the same compound?
A: 5.13 µM

Q: What about the GI50 [14] of the same compound?
A: 10.8 µM

Q: What about the TGI [14] of the same compound?
A: 30.8 µM

Q: What about the GI50 [15] of the same compound?
A: 14.6 µM

Q: What about the TGI [15] of the same compound?
A: 30 µM

Q: What about the GI50 [16] of the same compound?
A: 3.86 µM

Q: And the TGI [16]?
A: 19.3 µM

Q: And the GI50 [17]?
A: 3.69 µM

Q: What about the TGI [17] of the same compound?
A: 14.4 µM

Q: And the GI50 [18]?
A: 1.21 µM

Q: What about the TGI [18] of the same compound?
A: 2.71 µM

Q: What about the GI50 [19] of the same compound?
A: 8.66 µM

Q: And the TGI [19]?
A: 32 µM

Q: And the GI50 [20]?
A: 14 µM

Q: What about the TGI [20] of the same compound?
A: 27.7 µM

Q: And the GI50 [21]?
A: 7.74 µM

Q: What about the TGI [21] of the same compound?
A: 32.5 µM

Q: What about the GI50 [22] of the same compound?
A: 5.95 µM

Q: And the TGI [22]?
A: 20.7 µM

Q: And the GI50 [23]?
A: 2.89 µM

Q: What about the TGI [23] of the same compound?
A: 10.7 µM

Q: What about the GI50 [24] of the same compound?
A: 3.72 µM

Q: And the TGI [24]?
A: 28.8 µM

Q: And the GI50 [25]?
A: 3.49 µM

Q: And the TGI [25]?
A: 21.9 µM

Q: What about the GI50 [26] of the same compound?
A: 1.64 µM

Q: What about the TGI [26] of the same compound?
A: 6.63 µM

Q: And the GI50 [27]?
A: 1.91 µM

Q: What about the TGI [27] of the same compound?
A: 3.82 µM

Q: And the GI50 [28]?
A: 3.64 µM

Q: What about the TGI [28] of the same compound?
A: 14.8 µM

Q: What about the GI50 [29] of the same compound?
A: 10.3 µM

Q: What about the TGI [29] of the same compound?
A: 32.2 µM

Q: And the GI50 [30]?
A: 2.03 µM

Q: And the TGI [30]?
A: 4.36 µM

Q: What about the GI50 [31] of the same compound?
A: 11.4 µM

Q: What about the TGI [31] of the same compound?
A: 27.9 µM

Q: What about the GI50 [32] of the same compound?
A: 13.9 µM

Q: What about the TGI [32] of the same compound?
A: 32.4 µM

Q: And the GI50 [33]?
A: 4.09 µM

Q: And the TGI [33]?
A: 17.5 µM

Q: What about the GI50 [34] of the same compound?
A: 5 µM

Q: And the TGI [34]?
A: 44.2 µM

Q: And the GI50 [35]?
A: 3.04 µM

Q: What about the TGI [35] of the same compound?
A: 10.8 µM

Q: And the GI50 [36]?
A: 3.49 µM

Q: And the TGI [36]?
A: 12.2 µM

Q: What about the GI50 [37] of the same compound?
A: 1.85 µM

Q: And the TGI [37]?
A: 4.18 µM

Q: What about the GI50 [38] of the same compound?
A: 12.2 µM

Q: And the TGI [38]?
A: 29 µM

Q: What about the GI50 [39] of the same compound?
A: 3.62 µM

Q: What about the TGI [39] of the same compound?
A: 19.9 µM

Q: What about the GI50 [40] of the same compound?
A: 3.64 µM

Q: And the TGI [40]?
A: 12.3 µM

Q: And the GI50 [41]?
A: 8.23 µM

Q: And the TGI [41]?
A: 29 µM

Q: And the GI50 [42]?
A: 6.19 µM

Q: What about the TGI [42] of the same compound?
A: 21.7 µM

Q: What about the GI50 [43] of the same compound?
A: 1.87 µM

Q: And the TGI [43]?
A: 3.98 µM

Q: And the GI50 [44]?
A: 14.1 µM

Q: What about the TGI [44] of the same compound?
A: 31.9 µM

Q: And the GI50 [45]?
A: 0.309 µM

Q: And the TGI [45]?
A: 1.27 µM

Q: What about the GI50 [46] of the same compound?
A: 1.43 µM

Q: And the TGI [46]?
A: 3.46 µM

Q: What about the GI50 [47] of the same compound?
A: 2.57 µM

Q: And the TGI [47]?
A: 8.55 µM

Q: What about the GI50 [48] of the same compound?
A: 3.69 µM

Q: And the TGI [48]?
A: 16.2 µM

Q: And the GI50 [49]?
A: 11.7 µM

Q: And the TGI [49]?
A: 28 µM

Q: What about the GI50 [50] of the same compound?
A: 12.7 µM

Q: And the TGI [50]?
A: 29.9 µM

Q: What about the GI50 [51] of the same compound?
A: 7.72 µM

Q: And the TGI [51]?
A: 27.4 µM

Q: What about the GI50 [52] of the same compound?
A: 0.858 µM

Q: And the TGI [52]?
A: 2.28 µM

Q: And the GI50 [53]?
A: 2 µM

Q: What about the TGI [53] of the same compound?
A: 3.81 µM

Q: And the GI50 [54]?
A: 12.6 µM

Q: And the TGI [54]?
A: 34.6 µM

Q: What about the GI50 [55] of the same compound?
A: 9.92 µM

Q: And the TGI [55]?
A: 29.9 µM

Q: What about the GI50 [56] of the same compound?
A: 15.9 µM

Q: What about the TGI [56] of the same compound?
A: 48.3 µM
